What was measured:
canine PBMCs = assay: Cytokine production from canine PBMCs stimulated with SEB and anti-CD28 (ELISA); assay type: cell-based; settings: PGE2 2.5 μM; SEB + anti-CD28, 3 days
[1] = test system: PBMCs derived from uninfected cattle; assay: PD-L1 protein expression in bovine PBMCs (flow cytometry); assay type: cell-based; settings: PGE2 added, 24 hours
[2] = test system: PBMCs derived from uninfected cattle; assay: PBMC culture under anti-CD3/anti-CD28 stimulation: cell proliferation (CFSE) and cytokine production (ELISA); settings: 3 days
BLV provirus = assay type: cell-based, cattle
[3] = test system: PBMCs derived from uninfected cattle; assay: mRNA expression in bovine PBMCs (real-time PCR); assay type: cell-based
Protocol: Using the synthesized cDNA as a template, real-time PCR was performed with LightCycler480 System II (Roche) in a 10 μl reaction solution containing SYBR Premix DimerEraser (TaKaRa) and 3 pmol each of the primers specific to individual genes. Then, changes in expression levels of individual genes were observed. After 45 cycles of thermal denaturation, annealing and extension, the temperature was raised from 65° C. to 95° C. at 0.1° C./sec for melting curve analysis. The melting temperatures of amplified products were measured to confirm specificity. For each sample, expression levels of genes ACTB and GAPDH were quantified as internal standards. […] Then, real-time PCR was performed using PDL1 specific primers.

[4] = PGE2 25 nM, 250 nM and 2,500 nM

CCCCC[C@H](O)/C=C/[C@H]1[C@H](O)CC(=O)[C@@H]1C/C=C\CCCC(=O)O [PGE2, prostaglandin E2]
IFN-γ production from canine PBMCs (canine PBMCs): significantly decreased | IL-2 production from canine PBMCs (canine PBMCs): significantly decreased | expression of PD-L1 protein [1]: significantly increased | IFN-γ production [2, 4]: significantly inhibited | proliferation of CD4^+ cells [2, 4]: significantly inhibited | proliferation of CD8^+ cells [2, 4]: significantly inhibited | TNF-α production ([2]; PGE2 2,500 nM): significantly inhibited | BLV provirus load in PBMCs (BLV provirus): increase significantly | expression level of Foxp3 ([3]; PGE2 2,500 nM, 3 days): significantly increased | expression level of IFNγ ([3]; PGE2 2,500 nM, 3 days): significantly decreased | expression level of IL-2 ([3]; PGE2 2,500 nM, 3 days): significantly decreased | expression level of IL-10 ([3]; PGE2 2,500 nM, 3 days): significantly increased | expression level of STAT3 ([3]; PGE2 2,500 nM, 3 days): significantly increased | expression level of TGFβ1 ([3]; PGE2 2,500 nM, 3 days): significantly increased | expression level of TNFα ([3]; PGE2 2,500 nM, 3 days): significantly decreased | expression of PD-L1 mRNA ([3]; PGE2 added, 24 hours): significantly increased
